# Values of other authors, collected in patent publication US12016830B2, “Pharmaceutical compositions comprising isotretinoin and processes for preparation and uses thereof” (Acrotech Biopharma Inc., priority 2022, dated 2024).
# Conditions: background statement
compound,measurement,value
"CC1=C(/C=C/C(C)=C/C=C/C(C)=C\C(=O)O)C(C)(C)CCC1 [Isotretinoin, 13-cis retinoic acid]",oral bioavailability,low oral bioavailability
